Activity calls are given as the source filed them.
Columns and labels:
[1] = molecular target: Voltage-dependent T-type calcium channel subunit alpha-1H (Homo sapiens, UniProt O95180); format: functional;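 note: channel activity triggered by adding a high calcium stimulation buffer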
[2] = molecular target: T1, Tyrosine-protein phosphatase non-receptor type 7 (Homo sapiens, UniProt P35236); format: functional
T1 sequence (P35236 whole entry): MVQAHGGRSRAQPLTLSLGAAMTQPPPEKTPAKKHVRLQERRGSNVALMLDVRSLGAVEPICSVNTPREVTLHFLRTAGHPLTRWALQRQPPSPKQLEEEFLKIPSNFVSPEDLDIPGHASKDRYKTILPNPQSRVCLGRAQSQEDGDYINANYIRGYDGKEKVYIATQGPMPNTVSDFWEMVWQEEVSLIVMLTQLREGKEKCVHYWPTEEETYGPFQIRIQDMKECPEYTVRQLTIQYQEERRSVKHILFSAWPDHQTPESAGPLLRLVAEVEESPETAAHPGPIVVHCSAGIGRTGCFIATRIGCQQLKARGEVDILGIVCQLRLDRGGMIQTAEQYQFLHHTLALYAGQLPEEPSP

[3] = molecular target: T2, Dual specificity protein phosphatase 6 (Rattus norvegicus, UniProt Q64346)
T2 sequence (Q64346 whole entry): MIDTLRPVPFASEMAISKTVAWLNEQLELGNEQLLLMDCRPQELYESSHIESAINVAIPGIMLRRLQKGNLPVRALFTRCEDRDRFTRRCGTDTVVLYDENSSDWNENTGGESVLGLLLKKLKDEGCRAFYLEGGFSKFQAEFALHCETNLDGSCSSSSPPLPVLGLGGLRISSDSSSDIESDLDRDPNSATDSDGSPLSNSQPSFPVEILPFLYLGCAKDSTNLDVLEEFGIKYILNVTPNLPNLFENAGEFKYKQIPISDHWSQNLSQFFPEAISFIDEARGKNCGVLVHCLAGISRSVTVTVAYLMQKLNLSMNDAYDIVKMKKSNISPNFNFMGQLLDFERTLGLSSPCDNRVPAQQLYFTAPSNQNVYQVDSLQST

[4] = molecular target: Glyceraldehyde-3-phosphate dehydrogenase (Homo sapiens, UniProt P04406)
Sequence of Glyceraldehyde-3-phosphate dehydrogenase (P04406 whole entry): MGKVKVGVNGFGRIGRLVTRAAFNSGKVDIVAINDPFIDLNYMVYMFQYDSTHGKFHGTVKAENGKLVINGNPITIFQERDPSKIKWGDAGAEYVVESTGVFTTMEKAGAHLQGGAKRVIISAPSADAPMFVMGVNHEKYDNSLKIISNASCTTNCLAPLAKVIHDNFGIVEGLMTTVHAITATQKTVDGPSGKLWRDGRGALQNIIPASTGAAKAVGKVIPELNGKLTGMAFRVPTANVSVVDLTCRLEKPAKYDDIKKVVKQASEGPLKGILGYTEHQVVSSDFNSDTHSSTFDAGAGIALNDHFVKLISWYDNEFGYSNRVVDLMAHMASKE

[5] = molecular target: T2, Dual specificity protein phosphatase 6; format: functional
[6] = A cytotoxicity screen of small molecule inhibitors of the PhoP region in Salmonella typhi identified in the primary screen. [Related pubchem assays: 1850, 1864, 1985 ]; format: functional
BJ [7] = experiment: cells; format: functional, cell-based; details: Homo sapiens
[8] = luciferase reporter signal reduction – luminescence, H4-C neuroglioblastoma cells, dose response (AID 2458); format: functional, cell-based;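 note: H4 neuroglioblastoma cells stably carrying a luciferase reporter gene fusion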
[9] = Luminescence Cell-Based Dose Response HTS to Identify Inhibitors of 5'UTR Stem-Loop Driven Prion Protein mRNA Translation in H4 Neuroglioblastoma Cells. [Related pubchem assays: 1827 (Project Summary), 1813 (Primary HTS)]; format: functional
[10] = inhibitors of firefly luciferase expression or activity, dose response, H4 neuroglioma cells, luminescence (AID 1990); format: functional, cell-based
[11] = inhibitors of SNCA 5'UTR-driven translation, confirmation, luminescence, H4 neuroglioblastoma cells, dose confirmation (AID 2454); format: functional, cell-based;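 note: H4 neuroglioblastoma cells carrying an alpha-synuclein 5'UTR luciferase reporter; potency for inhibition of the luciferase signal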
BJ [12] = experiment: cytotoxicity toward BJ-TERT-LT-ST fibroblasts, dose response, cell-based, RAS-independent, luminescence (AID 1935); format: functional; details: Homo sapiens;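 note: BJ fibroblasts immortalized with TERT plus LT and ST oncogenes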
[13] = cytotoxicity toward DRD oncogenic fibroblasts, dose response, cell-based, non-viral oncogenic, luminescence (AID 1934); format: functional; details: Homo sapiens
cells = format: functional, cell-based
BJ [14] = experiment: cytotoxicity toward BJ-TERT fibroblasts, dose response, cell-based, RAS-independent, luminescence (AID 1933); format: functional; details: Homo sapiens
[15] = inhibitors of SNCA 5'UTR-driven reporter translation, confirmation, H4 neuroglioma cells, luminescence (AID 1988); format: functional, cell-based
[16] = molecular target: T3, Alkaline phosphatase, tissue-nonspecific isozyme (Homo sapiens, UniProt P05186); experiment: human TNAP enzyme inhibitors, SAR follow-up, biochemical, luminescent, dose response (AID 1056)
T3 sequence (P05186 whole entry): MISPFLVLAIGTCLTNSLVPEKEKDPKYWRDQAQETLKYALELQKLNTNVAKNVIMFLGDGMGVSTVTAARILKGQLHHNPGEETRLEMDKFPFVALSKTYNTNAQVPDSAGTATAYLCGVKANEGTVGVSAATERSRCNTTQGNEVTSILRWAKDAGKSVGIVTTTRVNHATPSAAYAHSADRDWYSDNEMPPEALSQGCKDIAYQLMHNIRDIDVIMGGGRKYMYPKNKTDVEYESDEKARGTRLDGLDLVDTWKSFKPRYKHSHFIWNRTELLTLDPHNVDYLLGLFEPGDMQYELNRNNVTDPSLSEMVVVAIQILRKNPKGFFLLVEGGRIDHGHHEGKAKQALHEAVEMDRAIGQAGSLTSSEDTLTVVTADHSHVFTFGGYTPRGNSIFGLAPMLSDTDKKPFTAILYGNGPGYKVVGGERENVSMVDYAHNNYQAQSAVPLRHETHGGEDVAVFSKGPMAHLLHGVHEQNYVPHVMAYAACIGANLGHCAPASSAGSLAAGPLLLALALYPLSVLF

Aminopeptidase N = molecular target: T4, Aminopeptidase N (Plasmodium falciparum FcB1/Columbia, UniProt O96935); experiment: P. falciparum M1AAP inhibitors, biochemical, fluorogenic H-Leu-NHMec substrate, 1536-well (AID 1445); design: species or system Plasmodium falciparum 3D7, 3D7
T4 sequence (O96935 whole entry): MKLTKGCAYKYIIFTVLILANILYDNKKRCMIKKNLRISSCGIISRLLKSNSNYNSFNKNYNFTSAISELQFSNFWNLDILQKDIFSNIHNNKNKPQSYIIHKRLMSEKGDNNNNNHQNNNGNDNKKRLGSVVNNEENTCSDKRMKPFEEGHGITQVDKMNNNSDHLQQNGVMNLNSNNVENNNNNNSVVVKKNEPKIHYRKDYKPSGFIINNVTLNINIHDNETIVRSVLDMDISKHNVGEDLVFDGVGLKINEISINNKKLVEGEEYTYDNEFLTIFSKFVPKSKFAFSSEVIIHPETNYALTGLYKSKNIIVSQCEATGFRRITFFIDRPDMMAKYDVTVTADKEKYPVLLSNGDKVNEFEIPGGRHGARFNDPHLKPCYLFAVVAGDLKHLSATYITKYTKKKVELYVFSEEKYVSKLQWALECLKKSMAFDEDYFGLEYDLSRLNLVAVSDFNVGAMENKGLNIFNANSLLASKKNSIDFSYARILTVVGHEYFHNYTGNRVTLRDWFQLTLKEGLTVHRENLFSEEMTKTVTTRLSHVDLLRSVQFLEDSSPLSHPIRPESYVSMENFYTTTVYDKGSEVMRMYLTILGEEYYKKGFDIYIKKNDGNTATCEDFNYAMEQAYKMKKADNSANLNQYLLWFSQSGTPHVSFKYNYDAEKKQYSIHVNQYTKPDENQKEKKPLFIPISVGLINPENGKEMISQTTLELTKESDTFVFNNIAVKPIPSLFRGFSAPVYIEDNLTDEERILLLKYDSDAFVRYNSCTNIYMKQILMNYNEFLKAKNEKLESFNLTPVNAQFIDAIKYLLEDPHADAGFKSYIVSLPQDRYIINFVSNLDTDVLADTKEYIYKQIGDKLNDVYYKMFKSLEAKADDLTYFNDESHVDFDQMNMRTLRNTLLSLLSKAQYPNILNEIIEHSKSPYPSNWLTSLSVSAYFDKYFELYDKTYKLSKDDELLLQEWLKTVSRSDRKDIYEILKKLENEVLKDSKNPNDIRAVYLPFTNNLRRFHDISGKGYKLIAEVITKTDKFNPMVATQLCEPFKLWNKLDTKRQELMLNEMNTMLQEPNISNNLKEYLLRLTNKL

[17] = molecular target: T5, Ubiquitin-conjugating enzyme E2 N (Homo sapiens, UniProt P61088); format: functional;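 note: Dose-response confirmation in a TR-FRET assay detecting UBC13-driven polyubiquitin chain formation, inhibition measured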
T5 sequence (P61088 whole entry): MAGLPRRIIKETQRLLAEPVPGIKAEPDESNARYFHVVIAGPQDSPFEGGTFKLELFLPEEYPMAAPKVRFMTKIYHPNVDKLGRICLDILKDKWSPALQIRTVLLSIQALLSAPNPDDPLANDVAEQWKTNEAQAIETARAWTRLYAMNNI

[18] = inhibitors of intracellular T. cruzi replication, confirmation, NIH3T3 host cells, beta-gal luminescence (AID 2044); format: functional, cell-based;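 note: intracellular parasites grown in NIH/3T3 mouse fibroblasts as host cells; luminescent beta-galactosidase reporter signal from transgenic T. cruzi replicating inside host cells; inhibitors lower the luminescence signal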
[19] = cytotoxicity toward NIH3T3 fibroblasts, dose response, counter-screen, cell-based, ATP luminescence, mouse fibroblasts (AID 2010); format: functional;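 note: cells exposed to compound for about 90 hours before reading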
[20] = molecular target: DNA dC->dU-editing enzyme APOBEC-3A (Homo sapiens, UniProt P31941); experiment: APOBEC3A DNA deaminase inhibitors, dose response, biochemical (AID 504722); format: functional
Sequence of DNA dC->dU-editing enzyme APOBEC-3A (P31941 whole entry): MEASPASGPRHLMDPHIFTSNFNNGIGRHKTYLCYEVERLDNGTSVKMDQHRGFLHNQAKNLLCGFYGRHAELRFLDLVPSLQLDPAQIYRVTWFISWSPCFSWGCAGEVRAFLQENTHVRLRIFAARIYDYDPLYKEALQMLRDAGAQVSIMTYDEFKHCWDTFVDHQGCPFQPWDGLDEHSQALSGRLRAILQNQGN

[21] = molecular target: T6, Rac GTPase-activating protein 1 (Homo sapiens, UniProt Q9H0H5); experiment: MgcRacGAP GTPase-activating activity inhibitors, confirmation, biochemical, ADP Hunter fluorescence, primary and confirmatory (AID 624330); format: functional
T6 sequence (Q9H0H5 whole entry): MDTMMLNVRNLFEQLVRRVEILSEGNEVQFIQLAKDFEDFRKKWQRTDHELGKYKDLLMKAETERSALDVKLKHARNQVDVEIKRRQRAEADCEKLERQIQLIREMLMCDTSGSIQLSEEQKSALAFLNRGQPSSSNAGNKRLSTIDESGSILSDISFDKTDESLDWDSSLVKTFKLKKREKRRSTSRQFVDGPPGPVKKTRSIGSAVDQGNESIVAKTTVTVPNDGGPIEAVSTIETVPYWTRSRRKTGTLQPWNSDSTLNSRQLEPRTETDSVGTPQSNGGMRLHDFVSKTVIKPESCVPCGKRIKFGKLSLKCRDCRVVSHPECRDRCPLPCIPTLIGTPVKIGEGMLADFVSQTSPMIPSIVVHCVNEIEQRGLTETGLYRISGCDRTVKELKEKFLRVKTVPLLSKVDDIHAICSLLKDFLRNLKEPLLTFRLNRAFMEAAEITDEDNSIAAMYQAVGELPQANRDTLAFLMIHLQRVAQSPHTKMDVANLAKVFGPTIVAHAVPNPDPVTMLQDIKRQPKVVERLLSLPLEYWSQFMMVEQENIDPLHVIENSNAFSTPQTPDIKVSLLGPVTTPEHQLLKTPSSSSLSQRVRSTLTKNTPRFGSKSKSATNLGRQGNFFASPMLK

[22] = molecular target: DNA dC->dU-editing enzyme APOBEC-3G (Homo sapiens, UniProt Q9HC16); experiment: Dose Response confirmation of small molecule APOBEC3G DNA Deaminase Inhibitors via a fluorescence-based single-stranded DNA deaminase assay. [Related pubchem assays (depositor defined):AID493012, AID493028]; format: functional
Sequence of DNA dC->dU-editing enzyme APOBEC-3G (Q9HC16 whole entry): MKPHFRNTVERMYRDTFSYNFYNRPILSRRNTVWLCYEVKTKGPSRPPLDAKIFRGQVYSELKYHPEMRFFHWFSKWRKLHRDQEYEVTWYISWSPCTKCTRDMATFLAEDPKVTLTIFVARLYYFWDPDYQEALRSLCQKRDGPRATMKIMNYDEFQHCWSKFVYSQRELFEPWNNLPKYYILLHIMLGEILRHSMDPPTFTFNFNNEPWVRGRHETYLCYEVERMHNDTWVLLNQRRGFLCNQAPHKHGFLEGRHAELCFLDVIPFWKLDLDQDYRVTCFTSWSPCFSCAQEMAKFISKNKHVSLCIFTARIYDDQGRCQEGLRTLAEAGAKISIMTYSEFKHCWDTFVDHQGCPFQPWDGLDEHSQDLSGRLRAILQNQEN

Sequence of Voltage-dependent T-type calcium channel subunit alpha-1H (O95180 whole entry): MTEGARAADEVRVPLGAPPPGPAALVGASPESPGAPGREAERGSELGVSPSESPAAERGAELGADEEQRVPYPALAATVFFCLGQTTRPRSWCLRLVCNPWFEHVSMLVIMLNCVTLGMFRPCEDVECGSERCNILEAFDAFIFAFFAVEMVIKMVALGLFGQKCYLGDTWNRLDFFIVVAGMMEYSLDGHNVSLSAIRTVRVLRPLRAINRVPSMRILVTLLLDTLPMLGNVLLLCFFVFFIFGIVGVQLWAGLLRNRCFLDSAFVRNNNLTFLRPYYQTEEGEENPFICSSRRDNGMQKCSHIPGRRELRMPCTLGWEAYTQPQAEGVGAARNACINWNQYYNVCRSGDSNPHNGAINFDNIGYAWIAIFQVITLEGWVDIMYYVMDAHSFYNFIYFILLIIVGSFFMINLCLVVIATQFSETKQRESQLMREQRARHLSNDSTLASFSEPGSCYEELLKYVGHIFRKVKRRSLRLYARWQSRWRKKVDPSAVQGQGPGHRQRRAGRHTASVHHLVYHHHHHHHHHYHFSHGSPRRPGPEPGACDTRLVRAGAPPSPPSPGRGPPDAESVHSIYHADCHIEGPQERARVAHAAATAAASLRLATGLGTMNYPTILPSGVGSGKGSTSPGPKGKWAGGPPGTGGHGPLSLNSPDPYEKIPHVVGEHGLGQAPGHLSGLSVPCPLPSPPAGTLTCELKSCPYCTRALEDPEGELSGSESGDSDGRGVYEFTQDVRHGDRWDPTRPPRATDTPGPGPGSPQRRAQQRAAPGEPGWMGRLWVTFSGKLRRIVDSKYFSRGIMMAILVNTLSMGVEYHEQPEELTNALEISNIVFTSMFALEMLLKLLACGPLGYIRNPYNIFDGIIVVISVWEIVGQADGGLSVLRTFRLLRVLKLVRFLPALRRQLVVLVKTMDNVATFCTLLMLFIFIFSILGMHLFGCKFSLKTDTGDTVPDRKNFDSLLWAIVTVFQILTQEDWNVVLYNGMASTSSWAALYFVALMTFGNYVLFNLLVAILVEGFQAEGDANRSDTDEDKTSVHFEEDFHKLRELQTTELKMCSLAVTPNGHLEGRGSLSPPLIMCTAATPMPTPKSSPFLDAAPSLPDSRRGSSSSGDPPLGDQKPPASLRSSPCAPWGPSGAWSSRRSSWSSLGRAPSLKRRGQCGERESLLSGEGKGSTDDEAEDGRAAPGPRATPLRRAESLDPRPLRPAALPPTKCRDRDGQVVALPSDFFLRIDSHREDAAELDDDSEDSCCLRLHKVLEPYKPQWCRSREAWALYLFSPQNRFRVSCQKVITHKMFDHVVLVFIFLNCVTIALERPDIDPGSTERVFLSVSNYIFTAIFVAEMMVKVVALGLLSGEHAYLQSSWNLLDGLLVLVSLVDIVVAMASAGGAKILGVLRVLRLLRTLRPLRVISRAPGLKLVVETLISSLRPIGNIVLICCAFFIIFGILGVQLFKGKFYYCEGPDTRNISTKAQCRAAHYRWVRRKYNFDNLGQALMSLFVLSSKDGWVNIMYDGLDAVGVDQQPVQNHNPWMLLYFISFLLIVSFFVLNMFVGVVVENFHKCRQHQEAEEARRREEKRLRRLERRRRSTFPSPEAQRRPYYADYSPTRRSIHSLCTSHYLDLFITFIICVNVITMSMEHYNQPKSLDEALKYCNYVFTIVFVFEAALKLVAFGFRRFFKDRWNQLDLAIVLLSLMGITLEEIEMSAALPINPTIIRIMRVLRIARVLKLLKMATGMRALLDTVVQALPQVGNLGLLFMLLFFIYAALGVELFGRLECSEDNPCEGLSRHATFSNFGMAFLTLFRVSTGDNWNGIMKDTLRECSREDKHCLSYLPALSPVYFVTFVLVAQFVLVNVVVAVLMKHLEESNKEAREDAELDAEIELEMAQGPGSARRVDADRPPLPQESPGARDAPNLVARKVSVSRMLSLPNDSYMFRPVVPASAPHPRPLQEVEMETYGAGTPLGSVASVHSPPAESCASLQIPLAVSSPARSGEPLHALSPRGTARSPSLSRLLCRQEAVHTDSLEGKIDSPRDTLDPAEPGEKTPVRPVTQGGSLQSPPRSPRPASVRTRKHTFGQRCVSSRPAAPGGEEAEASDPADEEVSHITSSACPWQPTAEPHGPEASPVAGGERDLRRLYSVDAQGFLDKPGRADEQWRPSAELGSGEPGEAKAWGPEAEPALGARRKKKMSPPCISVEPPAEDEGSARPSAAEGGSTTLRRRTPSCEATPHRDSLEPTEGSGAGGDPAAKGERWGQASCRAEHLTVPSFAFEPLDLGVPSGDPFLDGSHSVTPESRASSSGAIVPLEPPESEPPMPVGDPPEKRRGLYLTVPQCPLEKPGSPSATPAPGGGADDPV

Cc1ccccc1NC(NC(=O)c1cccs1)C(Cl)(Cl)Cl (stereo not given)
EC50 [1]: 5.15 µM (active)

O=C(O)C1Nc2c(cccc2N2CCOCC2)C2C=CCC12 (stereo not given)
IC50 [2]: 3.87 µM (active) | IC50 [3]: 44 µM (active) | IC50 [4]: > 100 µM (not active) | IC50 [5]: 60.1 µM (active)

CN(C)c1nnnn1-c1ccc(Oc2ccccc2)cc1
EC50 [6]: > 50 µM (active)

CN1C(=O)C2(Nc3ccccc3-c3nc4ccccc4n32)c2ccccc21 (stereo not given)
EC50 [6]: > 50 µM (active)

Cc1ccc(NC(=O)CSc2nc3ccccc3c3nc4ccccc4n23)cc1
EC50 (BJ [7]): 24.2 µM (inconclusive) | EC50 [8]: 0.518 µM (active) | EC50 [9]: < 0.1 µM (active) | EC50 [10]: 0.142 µM (active) | EC50 [11]: 0.992 µM (active) | EC50 (BJ [12]): 6.66 µM (inconclusive) | EC50 [13]: 0.784 µM (active) | EC50 (cells): 0.963 µM (active) | EC50 (BJ [14]): 1.83 µM (inconclusive) | EC50 [15]: < 0.1 µM (active)

COc1ccc(C(C)(C)C)cc1S(=O)(=O)Nc1cccnc1
IC50 [16]: 26.4 µM (active)

C/C(Cl)=C\Cn1c(O)c(/N=N/C(=N)S)c2ccccc21
IC50 (Aminopeptidase N): 63.5 µM (active) | IC50 [17]: > 20 µM (inactive) | EC50 [18]: 1.2 µM (active) | EC50 [19]: > 30 µM (not active)

COc1ccc(/C=N/n2c(S)nnc2-c2[nH]nc3c2CCC3)cc1OC
IC50 [20]: > 100 µM (inactive) | IC50 [21]: 79.9 µM (active) | IC50 [22]: 2.49 µM (active)

— ChEMBL document CHEMBL1201862, “PubChem BioAssay data set” (2004)
